Data published in patent US20220119354A1, “DIAMINO-SUBSTITUTED PYRIDINES AND PYRIMIDINES AS HERBICIDES” (FMC Corporation, priority 2019, published 2022).

Assays:
Assay type in all cases: in vivo
[1] = test system: ryegrass, Italian (Lolium multiflorum); assay: Test A postemergence, Italian ryegrass; details: 0 to 100 scale
Outline: (§1)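 Greenhouse pot test, loam/sand soil. Pre: directed soil spray at planting; post: foliar spray at 1–2 leaf stage (2–10 cm). Chemical in non-phytotoxic solvent + surfactant. Visual rating ~10 d, 0 = no effect, 100 = complete control.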

[2] = test system: pigweed (Amaranthus retroflexus); assay: Test A postemergence, pigweed; details: 0 to 100 scale
Outline: as §1

kochia (Kochia scoparia) [3] = assay: Test A postemergence, kochia; details: 0 to 100 scale
Outline: as §1

[4] = test system: foxtail, giant (Setaria faberii); assay: Test A postemergence, giant foxtail; details: 0 to 100 scale
Outline: as §1

[5] = test system: barnyardgrass (Echinochloa crus-galli); assay: Test A preemergence, barnyardgrass; details: 0 to 100 scale; for Barnyardgrass plant response rating: 0 is no effect, 100 is complete control
Outline: as §1

[6] = test system: wheat (Triticum aestivum); assay: Test A postemergence, wheat; details: 0 to 100 scale
Outline: as §1

[7] = test system: blackgrass (Alopecurus myosuroides); assay: Test A postemergence, blackgrass; details: 0 to 100 scale
Outline: as §1

[8] = test system: ragweed (common ragweed, Ambrosia elatior); assay: Test A postemergence, ragweed; details: 0 to 100 scale
Outline: as §1

[9] = test system: galium (catchweed bedstraw, Galium aparine); assay: Test A postemergence, galium; details: 0 to 100 scale
Outline: as §1

corn (Zea mays) = assay: Test A postemergence, corn; details: 0 to 100 scale
Outline: as §1

[10] = test system: ragweed (common ragweed, Ambrosia elatior); assay: Test A preemergence, ragweed; details: 0 to 100 scale; for Ragweed plant response rating: 0 is no effect, 100 is complete control
Outline: as §1

[11] = test system: ducksalad (Heteranthera limosa); assay: Test B flooded paddy test, ducksalad; details: Flood, 250 g ai/ha, applied to paddy water, 2-leaf stage, visual evaluation after 13 to 15 d
Outline: (§2)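 Growth to two leaves preceded treatment. Flooding to 3 cm above soil surface, then water-applied compound; depth kept constant. Scored visually relative to controls after 13–15 d greenhouse; 100 means full control.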

[12] = test system: barnyardgrass (Echinochloa crus-galli); assay: Test B flooded paddy test, barnyardgrass; details: Flood, 250 g ai/ha, applied to paddy water, 2-leaf stage, visual evaluation after 13 to 15 d
Outline: as §2

kochia (Kochia scoparia) [13] = assay: Test A preemergence, kochia; details: 0 to 100 scale; for Kochia plant response rating: 0 is no effect, 100 is complete control
Outline: as §1

[14] = test system: ryegrass, Italian (Lolium multiflorum); assay: Test A preemergence, Italian ryegrass; details: 0 to 100 scale; for Ryegrass, Italian plant response rating: 0 is no effect, 100 is complete control
Outline: as §1

[15] = test system: pigweed (Amaranthus retroflexus); assay: Test A preemergence, pigweed; details: 0 to 100 scale; for Pigweed plant response rating: 0 is no effect, 100 is complete control
Outline: as §1

[16] = test system: foxtail, giant (Setaria faberii); assay: Test A preemergence, giant foxtail; details: 0 to 100 scale; for Foxtail, Giant plant response rating: 0 is no effect, 100 is complete control
Outline: as §1

rice (Oryza sativa) = assay: Test B flooded paddy test, rice; details: Flood, 250 g ai/ha, applied to paddy water, 2-leaf stage, visual evaluation after 13 to 15 d
Outline: as §2

[17] = test system: sedge, umbrella (small-flower umbrella sedge, Cyperus difformis); assay: Test B flooded paddy test, umbrella sedge; details: Flood, 250 g ai/ha, applied to paddy water, 2-leaf stage, visual evaluation after 13 to 15 d
Outline: as §2

[18] = test system: barnyardgrass (Echinochloa crus-galli); assay: Test A postemergence, barnyardgrass; details: 0 to 100 scale
Outline: as §1

[19] = 125 g ai/ha, 0 no effect, 100 complete control
[20] = 500 g ai/ha, 0 no effect, 100 complete control

Structure (SMILES): Cc1cccc(OCC(C)Nc2ncc(C(F)(F)F)c(N)n2)c1 (stereo not drawn) [Compound 32]
- Plant response rating, Ryegrass, Italian ([1]; 125 g ai/ha): 0
- Plant response rating, Ryegrass, Italian ([1]; 500 g ai/ha): 0
- Plant response rating, Pigweed ([2]; 125 g ai/ha): 30
- Plant response rating, Pigweed ([2]; 500 g ai/ha): 60
- Plant response rating, Kochia (kochia (Kochia scoparia) [3]; 125 g ai/ha): 20
- Plant response rating, Kochia (kochia (Kochia scoparia) [3]; 500 g ai/ha): 60
- Plant response rating, Foxtail, Giant ([4]; 125 g ai/ha): 0
- Plant response rating, Foxtail, Giant ([4]; 500 g ai/ha): 40
- Barnyardgrass plant response rating ([5]; 125 g ai/ha): 0
- Plant response rating, Barnyardgrass ([5]; 500 g ai/ha): 90
- Plant response rating, Wheat ([6]; 125 g ai/ha): 0
- Plant response rating, Wheat ([6]; 500 g ai/ha): 0
- Plant response rating, Blackgrass ([7]; 125 g ai/ha): 0
- Plant response rating, Blackgrass ([7]; 500 g ai/ha): 0
- Plant response rating, Ragweed ([8]; 125 g ai/ha): 0
- Plant response rating, Ragweed ([8]; 500 g ai/ha): 40
- Plant response rating, Galium ([9]; 125 g ai/ha): 60
- Plant response rating, Galium ([9]; 500 g ai/ha): 70
- Plant response rating, Corn (corn (Zea mays); 125 g ai/ha): 0
- Plant response rating, Corn (corn (Zea mays); 500 g ai/ha): 0
- Ragweed plant response rating ([10]; 125 g ai/ha): 0
- Plant response rating, Ragweed ([10]; 500 g ai/ha): 100
- Plant response rating, Ducksalad (0 to 100 scale, 0 is no effect, 100 is complete control) [11]: 0
- Plant response rating, Barnyardgrass (0 to 100 scale, 0 is no effect, 100 is complete control) [12]: 0
- Kochia plant response rating (kochia (Kochia scoparia) [13]; 125 g ai/ha): 0
- Plant response rating, Kochia (kochia (Kochia scoparia) [13]; 500 g ai/ha): 30
- Ryegrass, Italian plant response rating ([14]; 125 g ai/ha): 0
- Plant response rating, Ryegrass, Italian ([14]; 500 g ai/ha): 0
- Pigweed plant response rating ([15]; 125 g ai/ha): 10
- Plant response rating, Pigweed ([15]; 500 g ai/ha): 60
- Foxtail, Giant plant response rating ([16]; 125 g ai/ha): 20
- Plant response rating, Foxtail, Giant ([16]; 500 g ai/ha): 80
- Plant response rating, Rice (0 to 100 scale, 0 is no effect, 100 is complete control) (rice (Oryza sativa)): 0
- Plant response rating, Sedge, Umbrella (0 to 100 scale, 0 is no effect, 100 is complete control) [17]: 0
- Plant response rating, Barnyardgrass ([18]; 125 g ai/ha): 0
- Plant response rating, Barnyardgrass ([18]; 500 g ai/ha): 20

Structure (SMILES): C[C@@H](Nc1nc(N)c(C(F)(F)F)c(C(F)(F)F)n1)c1cc2ccccc2s1 [Compound 59]
- Plant response rating, Ryegrass, Italian [1, 19]: 0
- Plant response rating, Ryegrass, Italian [1, 20]: 0
- Plant response rating, Pigweed [2, 19]: 60
- Plant response rating, Pigweed [2, 20]: 80
- Plant response rating, Kochia (kochia (Kochia scoparia) [3]; [19]): 50
- Plant response rating, Kochia (kochia (Kochia scoparia) [3]; [20]): 70
- Plant response rating, Foxtail, Giant [4, 19]: 0
- Plant response rating, Foxtail, Giant [4, 20]: 0
- Barnyardgrass plant response rating ([5]; 125 g ai/ha): 0
- Barnyardgrass plant response rating ([5]; 500 g ai/ha): 0
- Plant response rating, Wheat [6, 19]: 0
- Plant response rating, Wheat [6, 20]: 0
- Plant response rating, Blackgrass [7, 19]: 0
- Plant response rating, Blackgrass [7, 20]: 0
- Plant response rating, Ragweed [8, 19]: 0
- Plant response rating, Ragweed [8, 20]: 0
- Plant response rating, Galium [9, 19]: 20
- Plant response rating, Galium [9, 20]: 20
- Plant response rating, Corn (corn (Zea mays); [19]): 0
- Plant response rating, Corn (corn (Zea mays); [20]): 0
- Ragweed plant response rating ([10]; 125 g ai/ha): 0
- Ragweed plant response rating ([10]; 500 g ai/ha): 30
- Plant response rating, Ducksalad (0 to 100 scale, 0 is no effect, 100 is complete control) [11]: 0
- Plant response rating, Barnyardgrass (0 to 100 scale, 0 is no effect, 100 is complete control) [12]: 0
- Kochia plant response rating (kochia (Kochia scoparia) [13]; 125 g ai/ha): 70
- Kochia plant response rating (kochia (Kochia scoparia) [13]; 500 g ai/ha): 80
- Ryegrass, Italian plant response rating ([14]; 125 g ai/ha): 0
- Ryegrass, Italian plant response rating ([14]; 500 g ai/ha): 0
- Pigweed plant response rating ([15]; 125 g ai/ha): 30
- Pigweed plant response rating ([15]; 500 g ai/ha): 80
- Foxtail, Giant plant response rating ([16]; 125 g ai/ha): 0
- Foxtail, Giant plant response rating ([16]; 500 g ai/ha): 30
- Plant response rating, Rice (0 to 100 scale, 0 is no effect, 100 is complete control) (rice (Oryza sativa)): 0
- Plant response rating, Sedge, Umbrella (0 to 100 scale, 0 is no effect, 100 is complete control) [17]: 0
- Plant response rating, Barnyardgrass [18, 19]: 0
- Plant response rating, Barnyardgrass [18, 20]: 0
